Test results published in patent US20100240768A1, “NOVEL NUTRACEUTICALCOMPOSITIONS CONTAINING THYMOL AND/OR P-CYMENE OR PLANT EXTRACTS FOR COGNITION” (priority 2007, published 2010).
Where two headings read alike, the source gives them in different places.

Columns and labels:
[1] = test system: GluR1; experiment: Hippocampal slice cultures, synaptic marker GluR1 (cell surface AMPA receptor 1); format: cell-based, Wistar rats; settings: 15 min treatment of slices after 48 h culture; compared to sister cultures treated with buffer
Protocol: (§1) Seven-day-old Wistar rats were decapitated using a guillotine. In less than 1 minute the skull was opened, the cerebral hemispheres were separated and transferred and both hippocampi were dissected and transferred into ice cold buffer containing 137 mM NaCl, 5 mM KCl, 0.85 mM Na2HPO4, 1.5 mM CaCl2, 0.66 mM KH2PO4, 0.28 mM MgSO4, 1 mM MgCl2, 2.7 mM NaHCO3, 1 mM Kynurenic acid and 0.6% D-glucose.
(§2) Transversal hippocampal slices (400 μm) were prepared using a vibrating blade microtome (VT1200S; Leica Microsystems (Schweiz) AG, Heerbrugg, Switzerland) in the same buffer. Hippocampal slices were individually placed on a membrane insert (Millicell Culture Plate Inserts, 0.4 μm) and cultivated at 35° C., 5% CO2, 95% humidity in a medium containing a 1:1 mixture of BME and MEM (both from Invitrogen) containing 25% heat-inactivated horse serum, 1× GlutaMAX, 1× Penicillin/Streptomycin, 0.6% glucose and 1 mM Kynurenic acid (Stoppini, Buchs and Muller (1991), J. Neurosci. Methods, 37(2), 173-82).
(§3) After 48 h in culture, synaptic NMDA receptors were activated by addition of thyme extract or its constituents for 15 min in 140 mM NaCl, 5 mM KCl, 1.3 mM CaCl2, 25 mM HEPES (pH 7.3), 33 mM D-glucose and 0.02 mM bicuculline methiodide. […] An additional positive control comprised the addition of 200 μM glycine to sister cultures. After the treatments, sections were washed and fixed for immunohistochemistry. Markers of enhanced synaptic activity, normally associated with long-term potentiation, representing an ex vivo model of learning and memory were quantitated (see Table 2, below).
(§4) Table 2. […]. The activation of any of these markers (or a combination thereof) is observed in classical LTP experiments.
(§5) Treatment of hippocampal cultures with thyme extracts as well as with both p-cymene and thymol induced biochemical markers typical for LTP (pCREB: activated form of the cAMP response element binding protein; pMAPK: activated form of the mitogen-activated protein kinase; GLUR1: cell surface presence of AMPA receptor 1).

[2] = molecular target: T1, human glycine transporter 1b (GlyT1) (Homo sapiens, UniProt P48067); experiment: Inhibition of glycine transporter 1 in a cellular assay ([3H]glycine uptake into CHO cells); format: cell-based; settings: for IC50 for tritiated glycine uptake: CHO cells expressing human GlyT1b, pure compounds, mean±s.e.m.; for IC50: dose-response curve, internalization of radioactive glycine into the cells, read-out: IC50 (FIG. 1, GlyT1 inhibition assay)
T1 construct: expressed in transfected cells
T1 sequence (P48067 1-652 isoform P48067-3): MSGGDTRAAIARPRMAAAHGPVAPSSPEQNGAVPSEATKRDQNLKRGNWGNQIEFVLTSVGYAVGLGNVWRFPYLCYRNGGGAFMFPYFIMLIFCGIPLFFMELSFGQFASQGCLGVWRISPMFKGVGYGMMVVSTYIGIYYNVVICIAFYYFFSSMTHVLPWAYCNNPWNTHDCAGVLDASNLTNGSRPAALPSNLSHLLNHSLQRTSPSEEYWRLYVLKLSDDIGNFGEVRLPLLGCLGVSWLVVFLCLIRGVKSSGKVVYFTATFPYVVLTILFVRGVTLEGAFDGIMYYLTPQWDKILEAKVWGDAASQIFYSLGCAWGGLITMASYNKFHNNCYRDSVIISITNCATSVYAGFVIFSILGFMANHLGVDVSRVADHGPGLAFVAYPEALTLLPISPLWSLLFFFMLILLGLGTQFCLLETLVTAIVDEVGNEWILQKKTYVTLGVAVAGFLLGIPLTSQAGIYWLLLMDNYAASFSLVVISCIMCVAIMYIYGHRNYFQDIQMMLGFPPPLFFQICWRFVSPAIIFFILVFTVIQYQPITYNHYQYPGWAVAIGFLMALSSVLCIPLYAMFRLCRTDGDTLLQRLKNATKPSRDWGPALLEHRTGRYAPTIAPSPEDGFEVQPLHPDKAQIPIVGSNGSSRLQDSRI
Protocol: Cells were harvested by trypsinisation one day prior to the assay and were seeded in the above mentioned medium. […] Glycine uptake into the cells was determined by addition of 60 nM radio-labelled [^3H] glycine (Amersham Biosciences GE Healthcare, Slough, UK) and incubation for 30 minutes at room temperature. Following removal of unincorporated label by gentle washing three times with the above buffer, incorporated glycine was quantified by liquid scintillation counting. […] Louis, USA) were used as known inhibitors of GlyT1.

[3] = test system: pCREB; experiment: Hippocampal slice cultures, synaptic marker pCREB (immunohistochemistry); format: cell-based, Wistar rats; settings: 15 min treatment of slices after 48 h culture; compared to sister cultures treated with buffer
Protocol: as §1, §2, §3, §4, §5

[4] = test system: pMAPK; experiment: Hippocampal slice cultures, synaptic marker pMAPK (immunohistochemistry); format: cell-based, Wistar rats; settings: 15 min treatment of slices after 48 h culture; compared to sister cultures treated with buffer
Protocol: as §1, §2, §3, §4, §5

[5] = test system: adult mice; settings: systemic administration, Kinney et al 2003; cited from earlier work
[6] = test system: adult mice; settings: systemic administration, Kinney et al 2003; cited from earlier work; remark: listed apart in the source
[7] = test system: NMDA receptor; settings: rat hippocampal slice preparation; Bergeron et al 1998; cited from earlier work
[8] = test system: NMDA receptor; settings: mouse hippocampal slice preparation; Bergeron et al 1998; cited from earlier work

Molecule	GluR1 relative activation (symbol) [1]	IC50 for tritiated glycine uptake [2]	pCREB relative activation [3]	pMAPK relative activation [4]	IC50 [2]	other results
C=CC(C)(O)CCC=C(C)C (stereo not shown) [Linalool]	±	inactive	±	±	–	–
CN(CCC(Oc1ccc(-c2ccccc2)cc1)c1ccc(F)cc1)CC(=O)O (stereo not shown) [NFPS, N-[3-(4′-fluorophenyl)-3-(4′-phenylphenoxy)]propylsarcosine]	–	–	–	–	–	Prepulse inhibition of the acoustic startle response [5]: enhanced; LTP in the dentate gyrus [6]: increased; NMDA receptor responses in CA1 pyramidal cells [7]: enhanced; NMDA receptor responses in CA1 pyramidal cells [8]: enhanced
Cc1ccc(C(C)C)cc1 [P-Cymene]	±	inactive	++	++++	–	–
CNCC(=O)O [Sarcosine, reference compound]	–	–	–	–	0.0359 µM	–
Cc1ccc(C(C)C)c(O)c1 [Thymol]	–	–	++++	–	13.6 µM	GluR1 relative activation [1]: 250-767%
Caryophyllene	–	inactive	±	±	–	–
